Reference: ChEMBL document CHEMBL1201862, “PubChem BioAssay data set” (2004)
Calls of active or inactive are those of the source.

Assays:
[1] = target: T1, Female germline-specific tumor suppressor gld-1 (Caenorhabditis elegans, UniProt Q17339); assay: blockers of GLD-1/TGE RNA complex formation – biochemical, fluorescence polarization, C. elegans, dose response (AID 2802);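 also: fluorescence polarization of labeled TGE RNA bound by purified gld-1 protein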
T1 sequence (Q17339 whole entry): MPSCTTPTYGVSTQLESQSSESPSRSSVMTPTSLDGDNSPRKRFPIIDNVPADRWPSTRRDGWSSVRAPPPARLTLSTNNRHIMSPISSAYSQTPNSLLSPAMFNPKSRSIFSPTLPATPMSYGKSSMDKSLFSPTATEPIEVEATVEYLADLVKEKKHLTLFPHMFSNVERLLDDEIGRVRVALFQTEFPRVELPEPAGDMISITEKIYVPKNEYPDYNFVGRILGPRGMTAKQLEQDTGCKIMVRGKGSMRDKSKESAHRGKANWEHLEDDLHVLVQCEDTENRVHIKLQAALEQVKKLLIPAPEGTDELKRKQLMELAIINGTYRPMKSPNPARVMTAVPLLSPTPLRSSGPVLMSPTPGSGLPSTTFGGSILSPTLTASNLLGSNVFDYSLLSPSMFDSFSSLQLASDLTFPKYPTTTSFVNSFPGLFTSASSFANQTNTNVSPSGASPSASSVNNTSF

[2] = target: T2, Heat shock 70 kDa protein 1A (Homo sapiens, UniProt P0DMV8); assay: small molecules displacing fluorescent ligand from Hsp70 – biochemical, fluorescence polarization, primary screen (AID 583)
[3] = target: T3, Zinc finger protein mex-5 (Caenorhabditis elegans, UniProt Q9XUB2); assay: potency of MEX-5 RNA-binding blockers – biochemical, C. elegans, fluorescence polarization, dose response (AID 1960)
T3 sequence (Q9XUB2 whole entry): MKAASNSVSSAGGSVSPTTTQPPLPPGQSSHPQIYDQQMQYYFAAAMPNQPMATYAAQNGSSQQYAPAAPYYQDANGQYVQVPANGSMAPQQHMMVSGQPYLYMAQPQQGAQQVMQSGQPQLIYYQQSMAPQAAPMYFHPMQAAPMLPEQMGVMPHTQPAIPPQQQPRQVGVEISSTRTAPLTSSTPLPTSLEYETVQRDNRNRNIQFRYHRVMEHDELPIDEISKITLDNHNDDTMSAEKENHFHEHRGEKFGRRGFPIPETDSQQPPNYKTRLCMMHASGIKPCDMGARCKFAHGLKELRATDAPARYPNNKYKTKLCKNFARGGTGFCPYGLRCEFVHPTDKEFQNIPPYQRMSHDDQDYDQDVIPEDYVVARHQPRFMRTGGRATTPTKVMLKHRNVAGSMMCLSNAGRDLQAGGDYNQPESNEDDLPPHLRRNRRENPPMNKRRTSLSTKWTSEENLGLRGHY

[4] = viability loss in HepG2 liver cells – cell-based, ATP luminescence, cherry-pick, set 6, cytotoxicity control, dose response (AID 1053125); assay type: functional
[5] = target: T4, Polyadenylate-binding protein 1 (Homo sapiens, UniProt P11940); assay: MLLE domain peptide-binding blockers, IC50 – biochemical, fluorescence polarization, FITC-PAM2 peptide, dose response (AID 602259); assay type: functional; details: read-out: IC50_Mean
[6] = target: T5, RNA-binding protein pos-1 (Caenorhabditis elegans, UniProt G5EF15); assay: disruptors of C. elegans POS-1 RNA interaction – biochemical, fluorescence polarization, dose response (AID 1964);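 also: purified POS-1 fused to maltose binding protein made in E. coli; potency of compounds blocking POS-1 binding to fluorescent RNA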
T5 sequence (G5EF15 whole entry): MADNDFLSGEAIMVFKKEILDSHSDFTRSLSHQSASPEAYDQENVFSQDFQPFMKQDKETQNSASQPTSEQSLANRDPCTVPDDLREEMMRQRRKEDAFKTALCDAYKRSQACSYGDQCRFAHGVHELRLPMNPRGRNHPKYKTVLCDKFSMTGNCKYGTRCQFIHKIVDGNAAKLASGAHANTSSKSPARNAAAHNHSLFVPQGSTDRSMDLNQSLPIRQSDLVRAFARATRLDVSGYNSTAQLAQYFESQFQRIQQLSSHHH

[7] = target: T2, Heat shock 70 kDa protein 1A; assay: small-molecule inhibition of Hsp70 – biochemical, TR-FRET (AID 786)
[8] = target: T4, Polyadenylate-binding protein 1; assay: MLLE binding blockers, Cy5 peptide tracer – biochemical, fluorescence polarization, Cy5-PAM2 peptide, secondary, miRNA deadenylation inhibitor project, dose response (AID 602260); assay type: functional; details: read-out: IC50_Mean
Protein Rev = target: T6, Protein Rev (Human immunodeficiency virus type 1 group M subtype B (isolate HXB2)(HIV-1), UniProt P04618); assay: blockers of HIV Rev/RRE RNA complex – biochemical, fluorescence polarization, HIV-1, dose response (AID 434976); set-up: species or system Human immunodeficiency virus 1
T6 sequence (P04618 whole entry): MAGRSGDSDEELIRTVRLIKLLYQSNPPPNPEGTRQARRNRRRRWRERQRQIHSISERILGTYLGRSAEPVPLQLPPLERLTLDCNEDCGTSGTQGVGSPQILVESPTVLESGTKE

J774.A1 = assay: Confirmation of image-based Screening Assay for Inhibitors of Phagocytosis. [Related pubchem assays (depositor defined):AID1029, AID1643]; assay type: functional, cell-based; details: Mus musculus
BJ [9] = assay: BJ-TERT fibroblast viability loss – cell-based, RAS-independent, luminescence, dose response (AID 1933); assay type: functional; details: Homo sapiens
[10] = DRD fibroblast viability loss – cell-based, non-viral oncogenic, luminescence, dose response (AID 1934); assay type: functional; details: Homo sapiens
[11] = HEK-293T viability loss after treatment – luminescence, T-cell screen hits, cytotoxicity control for TCR NF-kB inhibitor project, dose response (AID 489026); assay type: functional, cell-based;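 also: cells exposed to compound about 14 hours before the viability readout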
BJ [12] = assay: BJ-TERT-LT-ST fibroblast viability loss – cell-based, RAS-independent, luminescence, dose response (AID 1935); assay type: functional; details: Homo sapiens;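 also: BJ fibroblasts immortalized with TERT plus LT and ST oncogenes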
BJ [13] = assay: cells; assay type: functional, cell-based; details: Homo sapiens
[14] = target: Intestinal-type alkaline phosphatase (Homo sapiens, UniProt P09923); assay: Dose Response confirmation of uHTS hits from a small molecule inhibitors of human intestinal alkaline phosphatase via a luminescent assay. [Related pubchem assays (depositor defined):AID2544, AID2574]; assay type: functional
[15] = fluconazole-exposed Candida albicans growth modulators – fluorescence, retest, confirmation (AID 2467); assay type: functional, cell-based
[16] = target: NACHT, LRR and PYD domains-containing protein 1 (Homo sapiens, UniProt Q9C000); assay: NALP1 inhibitors in yeast, dose response, luminescent (AID 488860); assay type: functional
Saccharomyces cerevisiae = assay: S. cerevisiae Caspase-1/ASC signal blockers IC50, NALP1 inhibitor project selectivity test (AID 488863); assay type: functional, organism-based
[17] = target: T7, Eukaryotic translation initiation factor 2-alpha kinase 3 (Homo sapiens, UniProt Q9NZJ5); assay: Counterscreen assay for PERK inhibitors: Dose response cell-based high throughput screening assay to measure inhibition of PERK at 6 hours. [Related pubchem assays: 1522, 1416 ]; assay type: functional
[18] = target: T7, Eukaryotic translation initiation factor 2-alpha kinase 3; assay: Dose response cell-based high-throughput screening assay to measure PERK inhibition. [Related pubchem assays: 1416 ]; assay type: functional
[19] = target: Lysosomal acid glucosylceramidase (Homo sapiens, UniProt P04062); assay: Dose response cell-based high throughput screening assay to identify enhancers of beta-glucosidase activity. [Related pubchem assays: 784 ]; assay type: functional
Sequence of Lysosomal acid glucosylceramidase (P04062 whole entry): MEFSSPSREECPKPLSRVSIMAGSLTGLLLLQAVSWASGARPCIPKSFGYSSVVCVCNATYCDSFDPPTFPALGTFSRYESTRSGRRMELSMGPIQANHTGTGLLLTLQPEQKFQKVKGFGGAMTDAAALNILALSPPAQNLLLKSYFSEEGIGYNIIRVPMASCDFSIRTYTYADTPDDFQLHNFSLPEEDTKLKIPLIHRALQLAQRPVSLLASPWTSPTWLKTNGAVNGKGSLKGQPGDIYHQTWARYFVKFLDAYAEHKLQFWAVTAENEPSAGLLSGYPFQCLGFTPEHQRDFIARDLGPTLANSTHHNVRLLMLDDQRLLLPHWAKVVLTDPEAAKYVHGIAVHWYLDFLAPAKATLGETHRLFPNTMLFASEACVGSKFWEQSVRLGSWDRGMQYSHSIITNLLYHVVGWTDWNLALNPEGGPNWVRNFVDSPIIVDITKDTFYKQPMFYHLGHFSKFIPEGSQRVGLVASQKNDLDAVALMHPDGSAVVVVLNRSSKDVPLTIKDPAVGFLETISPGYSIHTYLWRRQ

T7 sequence (Q9NZJ5 whole entry): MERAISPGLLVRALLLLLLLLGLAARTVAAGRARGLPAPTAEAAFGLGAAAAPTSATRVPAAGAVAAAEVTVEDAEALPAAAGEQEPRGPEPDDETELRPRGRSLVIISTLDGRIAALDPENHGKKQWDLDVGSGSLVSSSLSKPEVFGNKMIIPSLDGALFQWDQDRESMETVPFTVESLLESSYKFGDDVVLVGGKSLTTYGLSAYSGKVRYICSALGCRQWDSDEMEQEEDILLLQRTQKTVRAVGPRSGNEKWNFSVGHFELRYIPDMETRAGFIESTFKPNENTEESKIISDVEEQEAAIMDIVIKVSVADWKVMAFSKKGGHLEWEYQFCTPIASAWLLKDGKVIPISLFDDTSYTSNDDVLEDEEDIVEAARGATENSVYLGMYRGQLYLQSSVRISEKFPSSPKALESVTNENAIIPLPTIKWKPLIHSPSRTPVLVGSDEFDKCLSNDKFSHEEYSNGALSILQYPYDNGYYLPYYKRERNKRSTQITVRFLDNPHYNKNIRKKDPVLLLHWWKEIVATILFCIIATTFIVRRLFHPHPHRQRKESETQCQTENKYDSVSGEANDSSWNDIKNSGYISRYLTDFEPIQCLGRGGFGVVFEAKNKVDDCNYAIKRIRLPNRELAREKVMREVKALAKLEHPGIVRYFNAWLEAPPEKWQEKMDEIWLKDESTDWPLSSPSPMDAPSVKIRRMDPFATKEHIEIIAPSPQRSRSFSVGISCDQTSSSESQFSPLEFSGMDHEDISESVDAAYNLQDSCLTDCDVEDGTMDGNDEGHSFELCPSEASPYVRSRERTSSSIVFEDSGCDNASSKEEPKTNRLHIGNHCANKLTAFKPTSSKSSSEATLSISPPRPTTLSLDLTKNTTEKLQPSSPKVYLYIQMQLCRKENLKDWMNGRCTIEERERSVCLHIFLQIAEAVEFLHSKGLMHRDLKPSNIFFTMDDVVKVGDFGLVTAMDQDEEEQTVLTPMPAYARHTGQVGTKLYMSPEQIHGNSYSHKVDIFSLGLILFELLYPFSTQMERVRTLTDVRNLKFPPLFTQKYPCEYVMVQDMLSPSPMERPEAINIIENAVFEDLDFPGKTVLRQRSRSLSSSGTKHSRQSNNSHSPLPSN
T4 sequence (P11940 whole entry, the tested form may be a part): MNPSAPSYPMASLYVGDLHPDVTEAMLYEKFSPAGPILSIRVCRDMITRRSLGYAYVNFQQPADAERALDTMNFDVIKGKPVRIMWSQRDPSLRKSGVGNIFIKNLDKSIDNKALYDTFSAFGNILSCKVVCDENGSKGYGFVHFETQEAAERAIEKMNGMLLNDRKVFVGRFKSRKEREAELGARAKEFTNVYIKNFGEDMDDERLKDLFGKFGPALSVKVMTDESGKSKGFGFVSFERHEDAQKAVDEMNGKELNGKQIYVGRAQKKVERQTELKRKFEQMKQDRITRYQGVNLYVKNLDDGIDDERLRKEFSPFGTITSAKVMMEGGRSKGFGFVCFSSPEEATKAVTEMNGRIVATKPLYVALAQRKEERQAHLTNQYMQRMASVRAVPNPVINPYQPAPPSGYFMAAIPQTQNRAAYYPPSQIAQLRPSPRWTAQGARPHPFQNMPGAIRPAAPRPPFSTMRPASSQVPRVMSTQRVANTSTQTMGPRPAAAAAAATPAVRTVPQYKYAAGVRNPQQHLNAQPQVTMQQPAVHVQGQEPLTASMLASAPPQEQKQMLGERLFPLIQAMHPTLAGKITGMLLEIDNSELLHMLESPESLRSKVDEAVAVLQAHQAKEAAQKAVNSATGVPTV
T2 sequence (P0DMV8 whole entry): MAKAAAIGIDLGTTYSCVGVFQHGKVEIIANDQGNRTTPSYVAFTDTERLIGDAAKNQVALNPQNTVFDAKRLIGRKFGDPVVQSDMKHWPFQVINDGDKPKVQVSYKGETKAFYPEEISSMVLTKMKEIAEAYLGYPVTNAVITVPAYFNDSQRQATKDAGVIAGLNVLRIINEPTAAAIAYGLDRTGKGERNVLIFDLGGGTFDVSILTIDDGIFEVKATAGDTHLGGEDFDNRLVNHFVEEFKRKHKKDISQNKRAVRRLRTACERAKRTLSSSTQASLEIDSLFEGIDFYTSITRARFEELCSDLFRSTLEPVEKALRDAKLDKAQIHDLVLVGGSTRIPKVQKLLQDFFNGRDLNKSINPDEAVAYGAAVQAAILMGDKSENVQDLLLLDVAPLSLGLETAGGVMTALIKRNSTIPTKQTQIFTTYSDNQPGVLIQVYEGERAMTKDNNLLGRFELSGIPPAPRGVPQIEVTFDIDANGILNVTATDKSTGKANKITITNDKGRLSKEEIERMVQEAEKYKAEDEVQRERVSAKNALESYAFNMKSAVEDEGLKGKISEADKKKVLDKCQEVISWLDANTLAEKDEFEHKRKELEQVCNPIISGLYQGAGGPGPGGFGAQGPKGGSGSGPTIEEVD
Sequence of NACHT, LRR and PYD domains-containing protein 1 (Q9C000 1-1212 limits assumed): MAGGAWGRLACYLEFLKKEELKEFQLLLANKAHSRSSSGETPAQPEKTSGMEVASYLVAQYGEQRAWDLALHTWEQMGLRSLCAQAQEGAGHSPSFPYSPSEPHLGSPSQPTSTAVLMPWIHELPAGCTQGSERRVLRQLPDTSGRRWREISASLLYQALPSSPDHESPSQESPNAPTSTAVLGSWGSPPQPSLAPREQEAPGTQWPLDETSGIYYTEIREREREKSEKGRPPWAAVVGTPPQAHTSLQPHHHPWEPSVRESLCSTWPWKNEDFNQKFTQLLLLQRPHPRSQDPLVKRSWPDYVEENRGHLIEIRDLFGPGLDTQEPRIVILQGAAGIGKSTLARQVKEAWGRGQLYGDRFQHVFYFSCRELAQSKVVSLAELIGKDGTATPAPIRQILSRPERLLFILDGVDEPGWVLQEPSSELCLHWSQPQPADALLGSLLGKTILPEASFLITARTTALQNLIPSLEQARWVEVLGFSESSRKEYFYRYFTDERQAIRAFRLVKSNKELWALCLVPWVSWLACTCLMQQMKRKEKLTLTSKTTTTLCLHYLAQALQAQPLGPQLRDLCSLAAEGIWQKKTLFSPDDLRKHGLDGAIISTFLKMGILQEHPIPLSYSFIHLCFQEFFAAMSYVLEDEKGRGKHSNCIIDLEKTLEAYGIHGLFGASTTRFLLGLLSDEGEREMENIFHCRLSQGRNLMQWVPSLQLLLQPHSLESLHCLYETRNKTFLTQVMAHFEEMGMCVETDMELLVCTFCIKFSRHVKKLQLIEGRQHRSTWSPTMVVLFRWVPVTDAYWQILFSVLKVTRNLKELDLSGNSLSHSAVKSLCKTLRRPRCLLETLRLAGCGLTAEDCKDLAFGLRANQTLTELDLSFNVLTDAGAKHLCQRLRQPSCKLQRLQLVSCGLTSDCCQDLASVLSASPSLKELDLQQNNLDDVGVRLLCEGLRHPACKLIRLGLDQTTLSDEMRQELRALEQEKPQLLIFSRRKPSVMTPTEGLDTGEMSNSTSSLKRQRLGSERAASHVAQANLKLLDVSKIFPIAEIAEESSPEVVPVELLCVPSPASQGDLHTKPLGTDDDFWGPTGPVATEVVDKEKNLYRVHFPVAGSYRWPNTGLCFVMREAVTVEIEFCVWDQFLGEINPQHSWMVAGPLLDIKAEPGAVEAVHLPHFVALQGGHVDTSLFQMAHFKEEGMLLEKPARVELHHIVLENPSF
Sequence of NACHT, LRR and PYD domains-containing protein 1 (Q9C000 1213-1473 limits assumed): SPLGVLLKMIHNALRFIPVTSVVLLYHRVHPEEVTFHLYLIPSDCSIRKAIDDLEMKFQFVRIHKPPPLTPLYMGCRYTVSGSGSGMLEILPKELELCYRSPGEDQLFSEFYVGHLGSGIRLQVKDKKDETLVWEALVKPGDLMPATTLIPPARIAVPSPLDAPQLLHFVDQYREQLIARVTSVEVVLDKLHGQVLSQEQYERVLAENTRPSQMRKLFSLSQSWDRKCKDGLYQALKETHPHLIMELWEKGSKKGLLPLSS
Sequence of Intestinal-type alkaline phosphatase (P09923 whole entry): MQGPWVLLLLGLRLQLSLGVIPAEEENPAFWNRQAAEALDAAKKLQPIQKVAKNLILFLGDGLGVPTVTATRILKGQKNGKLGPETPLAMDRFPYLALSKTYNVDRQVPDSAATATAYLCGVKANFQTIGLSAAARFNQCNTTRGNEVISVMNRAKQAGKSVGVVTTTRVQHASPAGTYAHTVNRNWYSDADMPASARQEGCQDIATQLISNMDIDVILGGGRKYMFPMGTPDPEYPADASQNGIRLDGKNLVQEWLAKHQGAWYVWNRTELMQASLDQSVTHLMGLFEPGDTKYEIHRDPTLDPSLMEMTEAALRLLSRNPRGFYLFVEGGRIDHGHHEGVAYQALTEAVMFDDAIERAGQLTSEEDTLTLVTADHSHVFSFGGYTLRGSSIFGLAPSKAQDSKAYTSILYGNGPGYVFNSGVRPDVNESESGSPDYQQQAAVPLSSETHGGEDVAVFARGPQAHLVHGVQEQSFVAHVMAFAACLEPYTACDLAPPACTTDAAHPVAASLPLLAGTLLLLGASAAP

Nc1cccc2c1C(=O)N(c1ccccc1)C2=O
IC50 [1]: 2.9 µM (active) | IC50 [2]: 12.4 µM (active) | EC50 [3]: 10.5 µM (active) | AC50 [4]: > 52 µM (inactive) | IC50 [5]: 24 µM (inactive) | EC50 [6]: 17 µM (active) | IC50 [7]: > 100 µM (not active) | IC50 [8]: > 66 µM (inactive) | IC50 (Protein Rev): 7.86 µM (active)

Cc1ccc(C(=O)c2cc([N+](=O)[O-])ccc2N2CCOCC2)c(C)c1
IC50 (J774.A1): < 0.05 µM (inactive) | EC50 (BJ [9]): 0.764 µM (active) | EC50 [10]: 0.637 µM (active) | IC50 [11]: > 80 µM (inactive) | EC50 (BJ [12]): 0.78 µM (inconclusive) | EC50 (BJ [13]): 14.2 µM (active)

O=C(COc1ccccc1Cl)N1CCN(c2ccc([N+](=O)[O-])c(N3CCCCC3)c2)CC1
IC50 [14]: > 100 µM (inactive)

O=C1/C(=C/c2cccnc2)SC(=S)N1C1CCS(=O)(=O)C1 (configuration not stated)
EC50 [15]: 0.445 µM (active) | IC50 [16]: 33.8 µM (active) | IC50 (Saccharomyces cerevisiae): 49.1 µM (active)

O/N=C/c1ccc2cccc(O)c2n1
EC50 [17]: > 55.7 µM (not active) | EC50 [18]: > 55.7 µM (not active)

CC1(C)CC(=O)N(CC(=O)O)c2ccccc2S1
EC50 [19]: > 50 µM (not active)
